Assay results from paper PMC12154458, “High-Throughput Screens of Repurposing Hub and DOS Chemical Libraries Reveal Compounds with Novel and Potent Inhibitory Activity Against the Essential Non-Neuronal Acetylcholinesterase of Schistosoma mansoni (SmTAChE)” (International Journal of Molecular Sciences, 2025).
Like-named read-outs stand apart in the source and are kept apart here.

How the values were obtained:
[1] = molecular target: T1, rSmTAChE (Schistosoma mansoni, UniProt A0A3Q0KMM5); format: biochemical;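 on Inhibition (%) (Average): mostly 20 µM final but a few compounds at 5 or 10 µM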;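 on Inhibition (%) Replicate A: mostly 20 µM final but a few compounds at 5 or 10 µM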;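 on Inhibition (%) Replicate B: mostly 20 µM final but a few compounds at 5 or 10 µM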
T1 sequence (A0A3Q0KMM5 27-661 limits assumed): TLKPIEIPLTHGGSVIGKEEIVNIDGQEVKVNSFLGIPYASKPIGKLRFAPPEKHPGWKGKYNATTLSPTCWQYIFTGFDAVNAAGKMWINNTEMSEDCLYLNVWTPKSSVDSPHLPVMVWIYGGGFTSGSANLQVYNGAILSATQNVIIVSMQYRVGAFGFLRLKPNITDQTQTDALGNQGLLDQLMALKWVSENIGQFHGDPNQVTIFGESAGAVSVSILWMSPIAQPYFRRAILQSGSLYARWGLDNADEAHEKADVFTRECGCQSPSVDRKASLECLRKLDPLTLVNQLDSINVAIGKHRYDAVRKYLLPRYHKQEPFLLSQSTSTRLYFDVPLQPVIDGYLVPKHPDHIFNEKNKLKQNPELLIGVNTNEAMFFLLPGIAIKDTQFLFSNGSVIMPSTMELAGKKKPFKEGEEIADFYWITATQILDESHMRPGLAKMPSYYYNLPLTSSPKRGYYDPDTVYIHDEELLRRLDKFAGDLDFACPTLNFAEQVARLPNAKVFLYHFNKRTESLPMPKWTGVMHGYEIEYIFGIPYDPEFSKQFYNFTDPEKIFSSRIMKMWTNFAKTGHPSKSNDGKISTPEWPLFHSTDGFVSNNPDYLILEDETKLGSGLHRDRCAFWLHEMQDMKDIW

[2] = molecular target: recombinant human acetylcholinesterase, rHsAChE (Homo sapiens, UniProt P22303); assay: biochemical
recombinant human acetylcholinesterase, rHsAChE, sequence (P22303 32-614): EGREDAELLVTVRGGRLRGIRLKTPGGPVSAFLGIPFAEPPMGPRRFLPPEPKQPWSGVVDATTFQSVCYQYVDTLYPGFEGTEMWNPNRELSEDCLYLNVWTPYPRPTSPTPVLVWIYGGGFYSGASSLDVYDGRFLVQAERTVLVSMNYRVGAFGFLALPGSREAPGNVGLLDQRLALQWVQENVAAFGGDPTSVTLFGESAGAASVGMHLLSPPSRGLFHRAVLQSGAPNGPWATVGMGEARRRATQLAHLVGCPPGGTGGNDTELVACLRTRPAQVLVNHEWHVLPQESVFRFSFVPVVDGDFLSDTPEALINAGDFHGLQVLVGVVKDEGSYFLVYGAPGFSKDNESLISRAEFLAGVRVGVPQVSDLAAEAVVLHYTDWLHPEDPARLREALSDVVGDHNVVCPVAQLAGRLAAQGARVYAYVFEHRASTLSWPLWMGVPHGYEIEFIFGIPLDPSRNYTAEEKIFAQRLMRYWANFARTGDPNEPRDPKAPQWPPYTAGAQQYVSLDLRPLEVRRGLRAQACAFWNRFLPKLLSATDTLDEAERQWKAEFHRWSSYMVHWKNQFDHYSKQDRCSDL

[3] = molecular target: T1, rSmTAChE; assay: biochemical
[4] = read-out: qAC50 (IC50), rSmTAChE
[5] = dose response analysis of Drug Repurposing Hub hits against rHsAChE
[6] = read-out: HTS/rSmTAChE Inhibition (Ave, %)
[7] = read-out: qAC50 (IC50), rHsAChE

SMILES | Data Mode (curve class), rSmTAChE [1] | Data Mode (curve class), rHsAChE [2] | Inhibition (%) (Average) [3] | Inhibition (%) Replicate A [3] [%] | Inhibition (%) Replicate B [3] [%] | rSmTAChE Data Mode [1] | rHsAChE Data Mode [2] | SI (Hs/Sm) [1] | further results
C[C@H]1[C@H](C)CC[C@]2(C(=O)O)CC[C@]3(C)C(=CC[C@@H]4[C@@]5(C)CC[C@H](O)C(C)(C)[C@@H]5CC[C@]43C)[C@H]12 [BRD-K68185022-001-14-8] | decreasing (weakly active) | inactive | 75.09 | 74.28 | 75.90 | – | – | – | IC50 [1, 4]: > 38 µM
CC(C)C#Cc1ccc([C@@H]2[C@@H](CO)N3C(=O)CN(S(=O)(=O)c4ccccc4)C[C@@H]23)cc1 [BRD-K69261014-001-01-3] | – | – | 63.59 | 66.79 | 60.39 | inactive | increasing (weakly active) | – | –
COc1ccc(C#Cc2ccc3c(c2)O[C@H](CN(C)S(=O)(=O)c2ccccc2F)[C@H](C)CN([C@@H](C)CO)S3(=O)=O)cc1 [BRD-K71357636-001-01-3] | – | – | 64.93 | 63.67 | 66.19 | inactive | inactive | – | –
Cc1cc(OCCCS(C)(=O)=O)cc(C)c1-c1cccc(COc2ccc3c(c2)OC[C@H]3CC(=O)O)c1 [TAK-875, reference compound] | decreasing | – | – | – | – | – | – | 2.25 | Data Mode (curve class), rHsAChE [2, 5]: decreasing (weakly active); inhibition at 20 µM [3, 6]: 65%
C[C@H](CO)N1C[C@H](C)[C@@H](CN(C)C(=O)Nc2cc(F)ccc2F)Oc2cc(-c3cccc(C#N)c3)ccc2S1(=O)=O [BRD-K72311435-001-01-2] | – | – | 61.10 | 61.21 | 60.99 | inactive | decreasing (weakly active) | – | –
CCOC(=O)C1=C(C)NC(C)=C(C(=O)OCC)C1c1ccccc1/C=C/C(=O)OC(C)(C)C [BRD-K43586850-001-02-9] | inactive | inactive | 95.79 | 92.71 | 98.87 | – | – | – | –
CCCC#Cc1ccc([C@H]2[C@@H](CO)N3C(=O)CN(S(=O)(=O)c4ccccc4C)C[C@@H]23)cc1 [BRD-K77990919-001-01-3] | – | – | 79.61 | 76.02 | 83.20 | inactive | inactive | – | –
CC(C)(C)[S+]([O-])N1Cc2cc(C(=O)NCCN3CCCC3)nc(-c3cccc(-c4ccc(C#N)cc4)c3)c2C1CCO (stereo not shown) [BRD-K49441594-001-01-4] | – | – | – | – | – | decreasing | – | 2.35 | IC50 ([2]; Table 2, DOS-A library, Inactive = inactive at the maximum tested concentration (40 µM), read-out: IC50 (µM) rHsAChE): 35.5 µM; IC50 ([2]; Table S4, DOS-A (IC50 values; qAC50), read-out: rHsAChE qAC50): 35.5 µM; rHsAChE Data Mode ([2]; dose response curve classification, Table S4, DOS-A): decreasing; inhibition at 20 µM ([3]; read-out: rSmTAChE HTS Inhibition (Ave, %)): 61.8%
Cc1cc(Nc2ncc(Cl)c(Nc3ccccc3S(=O)(=O)C(C)C)n2)c(OC(C)C)cc1C1CCNCC1 [Ceritinib, reference compound] | decreasing | – | – | – | – | – | – | 1.58 | Data Mode (curve class), rHsAChE [2, 5]: decreasing (weakly active); inhibition at 20 µM [3, 6]: 67%
O=C(O)CCc1cc(C(=O)c2ccc(OC3CCCC3)cc2O)ccc1OCc1ccc2c(=O)[nH]oc2c1 [BRD-K84925803-001-01-9] | decreasing (weakly active) | inactive | 87.31 | 83.68 | 90.95 | – | – | – | IC50 [1, 4]: > 38 µM
COc1ccc(NC(=O)Nc2ccc3c(c2)[C@@H]2C[C@H](CC(=O)NCc4ccc5c(c4)OCO5)O[C@@H](CO)[C@@H]2O3)cc1 [BRD-K27599706-001-01-0] | – | – | 78.59 | 80.15 | 77.03 | decreasing (weakly active) | decreasing (weakly active) | – | –
Cc1cnc(Nc2ccc(N3CCN(C)CC3)cc2)nc1Nc1cccc(S(=O)(=O)NC(C)(C)C)c1 [TG-101209, reference compound] | decreasing | decreasing | 70.99 | 68.94 | 73.04 | – | – | 2.51 | IC50 ([1]; read-out: IC50 (µM) rSmTAChE): 6.13 µM; IC50 ([2]; read-out: IC50 (µM) rHsAChE): 15.4 µM; IC50 [2, 7]: 15.4 µM; HTS/rSmTAChE Inhibition (Ave, %) ([3]; 20 µM): 71.00%
CCOc1nc2cccc(C(=O)OCc3oc(=O)oc3C)c2n1Cc1ccc(-c2ccccc2-c2noc(=O)[nH]2)cc1 [BRD-K25723200-001-03-5] | decreasing | decreasing (weakly active) | 67.00 | 73.36 | 60.64 | – | – | – | IC50 [1, 4]: 11.6 µM; IC50 [2, 7]: > 12 µM
